These are literature values, as cited in patent US20260048046A1, “METHOD FOR IMPROVING GROWTH PERFORMANCE IN FEEDLOT CATTLE” (Elanco US Inc., priority 2022, published 2026).

For the data set, the system named is cattle. The settings on record: zilpaterol 8.3 mg/kg diet DM, Holland et al. (2010), cited from earlier work.

Read-outs that look alike come from different tables or passages of the source.

In the case of `CC(C)NC1CCn2c(=O)[nH]c3cccc(c32)C1O` (centres unmarked) [zilpaterol], the “Difference in HCW between zilpaterol fed and non-treated cattle” value (3 d removal prior to harvest) is 14 kg; the “Difference in HCW between zilpaterol fed and non-treated cattle” value (10 d removal prior to harvest) is 17 kg; the “Difference in HCW between zilpaterol fed and non-treated cattle” value (17 d removal prior to harvest) is given as 5 kg; the “Difference in HCW between zilpaterol fed and non-treated cattle” value (24 d removal prior to harvest) is on record as 6 kg. Further, where the note is “P≥0.14”, the “Final and carcass-adjusted final BW, effect of feeding zilpaterol” value is recorded as “not affected”.
